Measured values published in patent US10159249B2 (BAYER CROPSCIENCE AKTIENGESELLSCHAFT, priority 2013, dated 2018).
Like-named read-outs stand apart in the source and are kept apart here.

What was measured:
PfHPPD336W (SEQ ID No 4) = PfHPPD336W (SEQ ID No 4) (Pseudomonas sp., UniProt P80064, G335W); assay: biochemical; design: species or system Pseudomonas fluorescens
[1] = target: PfHPPD-Evo40 (SEQ ID No 27) (Pseudomonas sp., UniProt P80064, A172V/A339E/A53E/D148E/D45N/E105D/E287Q/E300V/E334P/F143Y/G286D/G335S/H150N/H254A/H63N/I158V/I187A/I249V/K92N/L18F/N24G/N280D/S245T/S257K/S301E/T205S/V65I); assay: biochemical; design: species or system Pseudomonas fluorescens
[2] = target: Avena sativa Δ A109 (SEQ ID No 43) (Avena sativa, UniProt A0ACD5V6K6, DEL109-109); assay: HPPD activity in presence of inhibitor, HGD assay; assay type: biochemical
Experimental: (§1) With the HGD assay HPPD activity was measured at room temperature by adding appropriate amounts of HPPD to a solution of 200 mM Tris-HCl pH 7.6, 10 mM ascorbate, 20 μM FeSO4, 650 units of catalase, 8 μg HGA dioxygenase (HGA: homogentisate) and 600 μM HPP in a total volume of 1 ml. Initial reaction rates were determined from the increase in absorbance at 318 nm due to the formation of maleylacetoacetate (ε318=11,900 M-1 cm-1).
(§2) In cases, the symbol “>” is used this means that the value was far higher than the one indicated but could not be precisely calculated within in the range of concentration of inhibitor tested.
(§3) In the 1st column of Table 1, the HPPD employed in the assay is named and in the 2nd column of Table 1, the corresponding SEQ ID No of present invention is disclosed.

FMP27 (SEQ ID No 17) = FMP27 (SEQ ID No 17) (Kordia algicida, UniProt A9DQF2); assay: HPPD activity in presence of inhibitor, HGD assay; assay type: biochemical
Experimental: as §1, §2, §3

FMP37 (SEQ ID No 9) = FMP37 (SEQ ID No 9) (Blepharisma japonicum, UniProt A8R3H6); assay: HPPD activity in presence of inhibitor, HGD assay; assay type: biochemical
Experimental: as §1, §2, §3

[3] = tested on: Non-transformed maize plants; assay: Greenhouse trial, maize plants, leaf damage; assay type: in vivo; conditions: 25 g AI/ha
Experimental: Regenerated T0 events from tissue culture were transplanted into two inch square pots with synthetic soil (Fafard® Mix) and controlled-released fertilizer (Haifa Multicote™; polymer-coated controlled-release fertilizer, NPK Pro 18-6-12+Micronutrients) and cultivated in the greenhouse (GH) under supplementary high pressure sodium light for 12 days at a maximum of 30° C. during the day and a minimum of 22° C. at night. Fully recovered plants were transferred into five inch square pots filled with synthetic soil and control released fertilizer under the same environmental conditions. […] All herbicide treatments were conducted in a DeVries Tracker Sprayer system with standard application protocols, which are well known in the art. As a spray control T0 events have been sprayed with the adjunvant mixture lacking the herbicide.

[4] = tested on: transgenic soybean T1 plants expressing PfHPPD-Evo33; assay type: in vivo; conditions: for number of events, herbicide tolerance class 0 (41%-100% damaged leaf area) / number of events, herbicide tolerance class 1 (16%-40% damaged leaf area) / number of events, herbicide tolerance class 2 (6%-15% damaged leaf area) / number of events, herbicide tolerance class 3 (0%-5% damaged leaf area): soybean PfHPPD-Evo33, scored after 21 days
[5] = tested on: transgenic soybean T1 plants expressing PfHPPD-G336W; assay type: in vivo; conditions: for number of events, herbicide tolerance class 0 (41%-100% damaged leaf area) / number of events, herbicide tolerance class 1 (16%-40% damaged leaf area) / number of events, herbicide tolerance class 2 (6%-15% damaged leaf area) / number of events, herbicide tolerance class 3 (0%-5% damaged leaf area): scored after 21 days
Euphorbia heterophylla = assay: Field trial, weed efficacy, post applied; assay type: in vivo; conditions: application at 5 leaf stage, assessment 14 days after application
[6] = tested on: wild type soybean plants (Merlin and Thorne); assay type: in vivo; conditions: 21 days after spraying
Amaranthus retroflexus = conditions: (A) 50 g ai/ha; application at 6 leaf stage; assessment 14 days after application

Avena sativa Δ A109 (SEQ ID No 43), sequence (A0ACD5V6K6 entry or part of it DEL109-109): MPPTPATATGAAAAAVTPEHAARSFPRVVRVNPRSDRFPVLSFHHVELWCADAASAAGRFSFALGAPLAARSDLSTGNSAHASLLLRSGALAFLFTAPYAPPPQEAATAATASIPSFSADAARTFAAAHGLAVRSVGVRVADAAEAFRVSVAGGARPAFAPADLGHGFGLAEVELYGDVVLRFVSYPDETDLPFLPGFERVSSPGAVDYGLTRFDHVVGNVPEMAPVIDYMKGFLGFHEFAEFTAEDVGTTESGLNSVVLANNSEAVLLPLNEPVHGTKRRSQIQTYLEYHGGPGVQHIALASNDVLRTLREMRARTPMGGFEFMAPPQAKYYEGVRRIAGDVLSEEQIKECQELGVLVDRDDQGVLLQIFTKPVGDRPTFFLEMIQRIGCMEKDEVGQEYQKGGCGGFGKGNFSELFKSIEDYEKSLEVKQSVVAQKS
FMP37 (SEQ ID No 9), sequence (A8R3H6 1-382): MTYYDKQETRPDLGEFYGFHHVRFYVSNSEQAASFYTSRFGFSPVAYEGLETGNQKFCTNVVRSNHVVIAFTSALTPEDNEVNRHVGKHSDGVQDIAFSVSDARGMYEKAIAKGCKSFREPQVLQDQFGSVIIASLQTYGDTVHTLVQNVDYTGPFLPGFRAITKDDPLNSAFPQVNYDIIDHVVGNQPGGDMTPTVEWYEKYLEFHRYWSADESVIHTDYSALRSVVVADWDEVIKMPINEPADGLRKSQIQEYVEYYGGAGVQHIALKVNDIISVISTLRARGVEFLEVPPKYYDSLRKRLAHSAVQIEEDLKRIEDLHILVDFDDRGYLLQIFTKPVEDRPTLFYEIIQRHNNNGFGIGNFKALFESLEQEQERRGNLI
PfHPPD336W (SEQ ID No 4), sequence (P80064 1-354 with tags or gaps with the stated changes): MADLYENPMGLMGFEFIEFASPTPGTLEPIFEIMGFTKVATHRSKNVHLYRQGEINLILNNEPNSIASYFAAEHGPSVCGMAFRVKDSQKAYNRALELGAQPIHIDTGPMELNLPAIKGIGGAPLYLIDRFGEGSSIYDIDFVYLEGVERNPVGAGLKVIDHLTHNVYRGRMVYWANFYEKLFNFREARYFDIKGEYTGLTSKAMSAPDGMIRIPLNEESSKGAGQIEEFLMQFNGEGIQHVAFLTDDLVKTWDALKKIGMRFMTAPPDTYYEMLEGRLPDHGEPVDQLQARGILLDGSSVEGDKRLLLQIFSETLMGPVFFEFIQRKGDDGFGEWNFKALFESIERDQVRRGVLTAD
FMP27 (SEQ ID No 17), sequence (A9DQF2 1-387): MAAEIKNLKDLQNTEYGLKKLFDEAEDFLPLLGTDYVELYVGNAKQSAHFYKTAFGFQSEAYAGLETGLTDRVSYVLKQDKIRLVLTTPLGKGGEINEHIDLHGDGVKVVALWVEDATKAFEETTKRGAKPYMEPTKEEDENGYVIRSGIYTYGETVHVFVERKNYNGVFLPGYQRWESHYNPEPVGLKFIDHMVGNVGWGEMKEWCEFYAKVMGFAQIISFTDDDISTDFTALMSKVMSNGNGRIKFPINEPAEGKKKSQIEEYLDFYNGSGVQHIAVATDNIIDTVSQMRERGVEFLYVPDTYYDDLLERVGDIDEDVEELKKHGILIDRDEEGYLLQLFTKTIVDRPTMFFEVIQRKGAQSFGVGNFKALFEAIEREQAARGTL
PfHPPD-Evo40 (SEQ ID No 27), sequence (P80064 1-354 with tags or gaps with the stated changes limits assumed): as the sequence (P80064 1-354 with tags or gaps with the stated changes) above, with E335P, W336S, A340E counted along it

For CSc1c(C(F)(F)F)ccc(C(=O)Nc2nnnn2C)c1Cl, the IC50 (PfHPPD336W (SEQ ID No 4)) was 200 nM, the “% inhibition at 0.2 μM” value (PfHPPD336W (SEQ ID No 4); 0.2 μM inhibitor, HGD assay) was 76% and the IC50 [1] was 251 nM. For the same compound, the “% inhibition at 0.2 μM” value ([1]; 0.2 μM inhibitor, HGD assay) was 40%, the IC50 [2] was 2000 nM and the inhibition at 0.2 µM ([2]; 0.2 μM inhibitor, HGD assay) was 8%. For the same compound, the IC50 (FMP27 (SEQ ID No 17)) was 316 nM, the inhibition at 0.2 µM (FMP27 (SEQ ID No 17); 0.2 μM inhibitor, HGD assay) was 29% and the IC50 (FMP37 (SEQ ID No 9)) was 5.01 µM. For the same compound, the inhibition at 0.2 µM (FMP37 (SEQ ID No 9); 0.2 μM inhibitor, HGD assay) was 0%, the leaf damage [3] was 100% and the “herbicide tolerance” value ([4]; most soybean T1 plants expressing PfHPPD-Evo33, 25 g AI/ha) was “high tolerance”. For the same compound, the “number of events, herbicide tolerance class 0 (41%-100% damaged leaf area)” value (“number of events … (41%-100% damaged leaf area)” below) ([4]; 6.25 g AI/ha) was 1, the “number of events, herbicide tolerance class 1 (16%-40% damaged leaf area)” value (“number of events … (16%-40% damaged leaf area)” for short) ([4]; 6.25 g AI/ha) was 0 and the “number of events, herbicide tolerance class 2 (6%-15% damaged leaf area)” value (“number of events … (6%-15% damaged leaf area)” for short) ([4]; 6.25 g AI/ha) was 0. The “number of events, herbicide tolerance class 3 (0%-5% damaged leaf area)” value (“number of events … (0%-5% damaged leaf area)” below) ([4]; 6.25 g AI/ha) was 11, the “number of events … (41%-100% damaged leaf area)” value ([4]; 25 g AI/ha) was 1 and the “number of events … (16%-40% damaged leaf area)” value ([4]; 25 g AI/ha) was 0. The “number of events … (6%-15% damaged leaf area)” value ([4]; 25 g AI/ha) was 2, the “number of events … (0%-5% damaged leaf area)” value ([4]; 25 g AI/ha) was 13 and the “number of events … (41%-100% damaged leaf area)” value ([4]; 50 g AI/ha) was 0. For the same compound, the “number of events … (16%-40% damaged leaf area)” value ([4]; 50 g AI/ha) was 4, the “number of events … (6%-15% damaged leaf area)” value ([4]; 50 g AI/ha) was 0 and the “number of events … (0%-5% damaged leaf area)” value ([4]; 50 g AI/ha) was 0. For the same compound, the “number of events … (41%-100% damaged leaf area)” value ([4]; 75 g AI/ha) was 0, the “number of events … (16%-40% damaged leaf area)” value ([4]; 75 g AI/ha) was 4 and the “number of events … (6%-15% damaged leaf area)” value ([4]; 75 g AI/ha) was 0. For the same compound, the “number of events … (0%-5% damaged leaf area)” value ([4]; 75 g AI/ha) was 0, the “number of events … (41%-100% damaged leaf area)” value ([5]; 6.25 g AI/ha) was 0 and the “number of events … (16%-40% damaged leaf area)” value ([5]; 6.25 g AI/ha) was 0. The “number of events … (6%-15% damaged leaf area)” value ([5]; 6.25 g AI/ha) was 0, the “number of events … (0%-5% damaged leaf area)” value ([5]; 6.25 g AI/ha) was 12 and the “number of events … (41%-100% damaged leaf area)” value ([5]; 25 g AI/ha) was 0. The “number of events … (16%-40% damaged leaf area)” value ([5]; 25 g AI/ha) was 0, the “number of events … (6%-15% damaged leaf area)” value ([5]; 25 g AI/ha) was 0 and the “number of events … (0%-5% damaged leaf area)” value ([5]; 25 g AI/ha) was 16. The “number of events … (41%-100% damaged leaf area)” value ([5]; 50 g AI/ha) was 0, the “number of events … (16%-40% damaged leaf area)” value ([5]; 50 g AI/ha) was 4 and the “number of events … (6%-15% damaged leaf area)” value ([5]; 50 g AI/ha) was 0. For the same compound, the “number of events … (0%-5% damaged leaf area)” value ([5]; 50 g AI/ha) was 0, the “number of events … (41%-100% damaged leaf area)” value ([5]; 75 g AI/ha) was 0 and the “number of events … (16%-40% damaged leaf area)” value ([5]; 75 g AI/ha) was 3. The “number of events … (6%-15% damaged leaf area)” value ([5]; 75 g AI/ha) was 1, the “number of events … (0%-5% damaged leaf area)” value ([5]; 75 g AI/ha) was 0 and the “herbicide tolerance” value ([5]; in vivo) was “high tolerance”. For the same compound, the “Efficacy (%) Euphorbia heterophylla” value (Euphorbia heterophylla; (A) 25 g ai/ha) was 15%, the “Efficacy (%) Euphorbia heterophylla” value (Euphorbia heterophylla; (A) 75 g ai/ha) was 35% and the “bleaching of the total leaf area” value ([6]; 6.25 g of AI/ha) was 45%-50%. The damaged leaf area ([6]; 25 g of AI/ha) was 90-100% and the “Efficacy (%) Amaranthus retroflexus” value (Amaranthus retroflexus) was 65%.
